Test results published in patent publication US20110040086A1, “Novel Beta-Lactam Antibiotics, Methods for Their Production, and Their Use” (DRITTE PATENTPORTFOLIO BETEILIGUNGSGESELLSCHAFT MB, priority 2007, published 2011).

What was measured:
[1] = logP value by HPLC according to Donovan et al.; details: for chromatographic logP: HPLC with methanol/0.1% phosphoric acid gradient, pH 2
Method: • Operating temperature 18-24° C. • Flow 1.5 mL/min • Linear gradient (methanol/0.1% phosphoric acid pH 2) from 10% to 100% methanol in 9.4 min, equilibrium time between 2 runs 6 min
ca. 0.5 mg of analyte is added to 0.5 ml of a standard solution (440 mg methyl phenyl sulfonate and 380 μl toluene in 150 mL methanol). 2 μl of this sample solution is injected.
Because the distribution coefficients of the two standards running in each test are known, the distribution coefficient of the analytes can be determined from the relationships of the analyte/standard retention times.

[2] = tested on: Enterococcus faecalis 769; assay: agar diffusion test (Test System II, multi-resistant germs); type: cell-based; set-up: key: r = resistant (no detectable zone of inhibition)
Method: (§1) The test substances are deposited in stepped quantities (10 μg, 50 μg, 100 μg) onto active ingredient carriers (sensi-discs). For this purpose, the test substances are dissolved in methanol or A. dest. according to their solubility. Each inoculated plate is fitted with 3 test sheets.
(§2) Test System II (Effect Against Multi-Resistant Germs)
(§3) For this purpose, bacteria is cultivated on Müller-Hinton-Agar II plates.
(§4) With 1-1.5 ml physiological saline solution, a bacteria suspension of McFarland 0.5 (corresponds to a bacteria density of 150×10^6 germs) is produced. Then, with a sterile glass rod, a small drop of bacteria suspension is placed on the Müller-Hinton-Agar plate and coated in three layers (vertical, horizontal, and transverse). Thereafter, the sensi-discs with the novel semi-synthetic test substances are placed on top. The fitted plates are incubated for 18-20 hours at 37° C. After incubation, the diameters of the zones of inhibition are read as a measure for the antimicrobial activity of the novel semi-synthetic test substances.

[3] = tested on: Staphylococcus aureus 315; assay: as above; type: cell-based; set-up: key: r = resistant (no detectable zone of inhibition)
Method: as §1, §2, §3, §4

[4] = tested on: S. aureus 36881; assay: as above; type: cell-based, Staphylococcus aureus; set-up: key: r = resistant (no detectable zone of inhibition)
Method: as §1, §2, §3, §4

[5] = tested on: S. aureus 520; assay: as above; type: cell-based, Staphylococcus aureus; set-up: key: r = resistant (no detectable zone of inhibition)
Method: as §1, §2, §3, §4

[6] = tested on: S. aureus North Germany strain; assay: as above; type: cell-based, Staphylococcus aureus; set-up: key: r = resistant (no detectable zone of inhibition)
Method: as §1, §2, §3, §4

[7] = tested on: S. aureus 38418; assay: as above; type: cell-based, Staphylococcus aureus
Method: as §1, §2, §3, §4

[8] = tested on: S. aureus ATCC 6538; assay: as above; type: cell-based, Staphylococcus aureus
Method: as §1, §2, §3, §4

[9] = tested on: S. epidermidis 847; assay: as above; type: cell-based, Staphylococcus epidermidis; set-up: key: r = resistant (no detectable zone of inhibition)
Method: as §1, §2, §3, §4

[10] = tested on: S. epidermidis 125; assay: as above; type: cell-based, Staphylococcus epidermidis
Method: as §1, §2, §3, §4

[11] = tested on: Staphylococcus aureus ATCC 6538; assay: mouse infected with Staphylococcus aureus infection model (survival); type: in vivo, BALB/c mice; details: 2 × 1.0 mg (50 mg/kg) i.p.
Method: Method for Effectiveness In Vivo with the Mouse Infected with Staphylococcus aureus Model
On Day 0, at least 3 BALB/c mice per test substance (Table 8) or controls are pretreated with cyclophosphamide (250 mg/kg) in 250 μl PBS inta peritoneal (i.p.).
On Day 2, the animals again received 100 mg/kg i.p.
On Day 2, a colony of the test germ is transferred from a growing agar plate (Müller-Hinton-Agar, Beckton Dickinson) into a flask with 10 ml CASO broth (CASO-B., Soyabean peptone-Casein peptone broth, SIFIN, 30 g/l) and is cultivated overnight at 37° C. and a shaking frequency of 250 rpm.
On Day 3, the pre-culture (Vk) is diluted 1:50 with CASO-B and further cultivated ca. 2 hours until an extinction in the medium of 0.6 at a wavelength of 550 nm is reached. Then, it is grown 1× with PBS at room temperature and set again to an extinction of 0.6.
At least 3 animals for a test substance or controls are infected with 10 μl/g body weight grown germs of a bacteria suspension with the extinction 0.6 (ca. 10^10-10^12 CFU, Colony forming units) i.p.
After 30 minutes, antibiotic solution is injected into the mice in a volume of 200 μl PBS with 3% DMSO i.p. 6 hours later, the second antibiotic injection is performed at the same concentration. […]

| Molecule | chromatographic logP [1] | Diameter of zone of inhibition ([2]; Quantity n 0.019) | Diameter of zone of inhibition ([2]; Quantity n 0.19) | Diameter of zone of inhibition ([3]; Quantity n 0.019) | Diameter of zone of inhibition ([3]; Quantity n 0.19) | Diameter of zone of inhibition ([4]; Quantity n 0.019) | Diameter of zone of inhibition ([4]; Quantity n 0.19) | Diameter of zone of inhibition ([5]; Quantity n [mol] 0.019) | Diameter of zone of inhibition ([5]; Quantity n [mol] 0.19) | Diameter of zone of inhibition ([6]; Quantity n 0.019) | Diameter of zone of inhibition ([6]; Quantity n 0.19) | Diameter of zone of inhibition ([7]; Quantity n [mol] 0.019) | Diameter of zone of inhibition ([7]; Quantity n [mol] 0.19) | Diameter of zone of inhibition ([8]; Quantity n 0.019) | Diameter of zone of inhibition ([8]; Quantity n 0.19) | Diameter of zone of inhibition ([9]; Quantity n [mol] 0.019) | Diameter of zone of inhibition ([9]; Quantity n [mol] 0.19) | Diameter of zone of inhibition ([10]; Quantity n 0.019) | Diameter of zone of inhibition ([10]; Quantity n 0.19) | Survival/tested mice n/n [11] | also measured |
| --- | --- | --- | --- | --- | --- | --- | --- | --- | --- | --- | --- | --- | --- | --- | --- | --- | --- | --- | --- | --- | --- |
| NC(=O)c1cc(O)ccc1O [2,5-dihydroxybenzamide] | -0.4 |  |  |  |  |  |  |  |  |  |  |  |  |  |  |  |  |  |  |  |  |
| CCOC(=O)C1=C(NC(C(=O)NC2C(=O)C3CC(Cl)=C(C(=O)O)NC32)c2ccccc2)C(=O)C=CC1=O (stereo not shown) [1p, 3-chlorine-7-[2-(2-ethoxycarbonyl-3,6-dioxocyclohexa-1,4-dienylamino)-2-phenyl-acetylamino]-8-oxo-5-azabicyclo[4.2.0]oct-3-ene-4-carboxylic acid] |  | r | r | r | 10 mm | r | 20 mm | r | 8 mm | r | 12 mm | 18 mm | >30 mm | 22 mm | 32 mm | r | 20 mm | 16 mm | 28 mm | 2/3 | Diameter of zone of inhibition ([2]; Quantity n 0.094): r; Diameter of zone of inhibition ([3]; Quantity n 0.094): r; Diameter of zone of inhibition ([4]; Quantity n 0.094): 12 mm; Diameter of zone of inhibition ([5]; Quantity n [mol] 0.094): r; Diameter of zone of inhibition ([6]; Quantity n 0.094): r; Diameter of zone of inhibition ([7]; Quantity n [mol] 0.094): 28 mm; Diameter of zone of inhibition ([8]; Quantity n 0.094): 30 mm; Diameter of zone of inhibition ([9]; Quantity n [mol] 0.094): 16 mm; Diameter of zone of inhibition ([10]; Quantity n 0.094): 26 mm |
| 3-chlorine-7-[2-(2-carbamoyl-3,6-dioxocyclohexa-1,4-dienylamino)-2-phenyl-acetylamino]-8-oxo-5-aza-bicyclo[4.2.0]oct-3-ene-4-carboxylic acid [1n] |  | r | r | r | 12 mm | r | 8 mm | r | 8 mm | r | 14 mm | 14 mm | 30 mm | 22 mm | 32 mm | r | 20 mm | 14 mm | 26 mm | 3/3 | Diameter of zone of inhibition ([2]; Quantity n 0.096): r; Diameter of zone of inhibition ([3]; Quantity n 0.096): r; Diameter of zone of inhibition ([4]; Quantity n 0.096): r; Diameter of zone of inhibition ([5]; Quantity n [mol] 0.096): r; Diameter of zone of inhibition ([6]; Quantity n 0.096): r; Diameter of zone of inhibition ([7]; Quantity n [mol] 0.096): 26 mm; Diameter of zone of inhibition ([8]; Quantity n 0.096): 28 mm; Diameter of zone of inhibition ([9]; Quantity n [mol] 0.096): 16 mm; Diameter of zone of inhibition ([10]; Quantity n 0.096): 22 mm |
| 3-chlorine-7-[2-(2-methoxycarbonyl-3,6-dioxocyclohexa-1,4-dienylamino)-2-phenyl-acetylamino]-8-oxo-5-aza-bicyclo[4.2.0]oct-3-ene-4-carboxylic acid [1o] |  | r | r | r | 10 mm | r | 12 mm | r | r | r | 12 mm | 14 mm | 28 mm | 22 mm | 30 mm | r | 18 mm | 14 mm | 24 mm | 2/3 | Diameter of zone of inhibition ([2]; Quantity n 0.094): r; Diameter of zone of inhibition ([3]; Quantity n 0.094): r; Diameter of zone of inhibition ([4]; Quantity n 0.094): r; Diameter of zone of inhibition ([5]; Quantity n [mol] 0.094): r; Diameter of zone of inhibition ([6]; Quantity n 0.094): r; Diameter of zone of inhibition ([7]; Quantity n [mol] 0.094): 14 mm; Diameter of zone of inhibition ([8]; Quantity n 0.094): 28 mm; Diameter of zone of inhibition ([9]; Quantity n [mol] 0.094): 14 mm; Diameter of zone of inhibition ([10]; Quantity n 0.094): 20 mm |
| O=C(NCCO)c1cc(O)ccc1O [2,5-dihydroxy-N-(2-hydroxyethyl)benzamide] | -1.21 |  |  |  |  |  |  |  |  |  |  |  |  |  |  |  |  |  |  |  |  |
| CCOC(=O)c1cc(O)ccc1O [2,5-dihydroxybenzoic acid ethylester] | 2.65 |  |  |  |  |  |  |  |  |  |  |  |  |  |  |  |  |  |  |  |  |
| N[C@@H](C(=O)N[C@@H]1C(=O)N2C(C(=O)O)=C(Cl)CC[C@H]12)c1ccccc1 [2d, Loracarbef, reference compound] |  |  |  |  |  |  |  |  |  |  |  |  |  |  |  |  |  |  |  |  | logP value ([1]; HPLC, methanol/0.1% phosphoric acid pH 2): −3.13 |
